Measurements reported in US20240025919A1, “AZA-TETRACYCLIC OXAZEPINE COMPOUNDS AND USES THEREOF” (Genentech, Inc., priority 2022, published 2024).

Key:
[1] = molecular target: T1, KRAS WT (Homo sapiens (Human), UniProt P01116); assay: KRAS WT Biochemical Assay, BODIPY-GDP Exchange TR-FRET (Example 502; 0.06 nM KRAS WT, 15 nM GDP, 300 nM SOS1, 120-minute incubation); conditions: read-out: KRas HTRF IC50
Method: Example 502: KRAS WT Biochemical Assay, BODIPY-GDP Exchange TR-FRET. Biochemical compound potencies are assessed by evaluating inhibition of SOS1-mediated nucleotide exchange in KRAS WT. In this assay, the SOS1-promoted exchange of fluorescently-labeled GDP (BOPIDY-GDP) is monitored by time-resolved fluorescence resonance energy transfer (TR-FRET). Compounds solubilized in DMSO are dispensed as concentration series into 384-well white assay plates. A preformed complex of 0.06 nM biotin-tagged recombinant human KRAS WT, 15 nM GDP and 0.06 nM terbium-labeled streptavidin (CisBIO) prepared in 10 uL/well assay buffer (20 mM HEPES, pH 7.5, 50 mM NaCl, 10 mM MgCl2, 0.01% Tween-20 and 1 mM dithiothreitol) is added and allowed to incubate for 10-minutes at room temperature. The reaction is initiated with the addition of 5 uL 300 nM recombinant human SOS1 and 300 nM BODIPY-GDP in assay buffer. After a 120-minute incubation, the fluorescence is measured with excitation at 337 nm and emission at 490 and 520 nm. The TR-FRET ratio is determined as the fluorescence at 520 nm divided by the fluorescence at 490 nm multiplied by 10,000. The results are normalized to percent inhibition based on control samples: DMSO (0% inhibition) and control compound at a concentration that inhibits completely (100% inhibition). The normalized TR-FRET results are plotted against compound concentration, and the data are fit to a 4-parameter Hill equation to determine the IC50 values.

[2] = molecular target: KRAS G12D (Homo sapiens (Human), UniProt P01116, G12D); assay: KRAS G12D LoEnz Biochemical Assay, BODIPY-GDP Exchange TR-FRET (SOS1-mediated nucleotide exchange); conditions: read-out: KRas (G12D) GDP HTRF IC50
Chain of KRAS G12D (P01116-2 other isoform, or with tags, fused parts or gaps G12D): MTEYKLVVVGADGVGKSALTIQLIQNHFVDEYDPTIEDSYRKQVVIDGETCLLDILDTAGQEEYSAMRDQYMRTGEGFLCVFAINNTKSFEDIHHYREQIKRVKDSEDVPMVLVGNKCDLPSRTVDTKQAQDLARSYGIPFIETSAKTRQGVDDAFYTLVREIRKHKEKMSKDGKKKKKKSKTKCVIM

[3] = molecular target: T1, KRAS WT; assay: KRAS WT Biochemical Assay, BODIPY-GDP Exchange TR-FRET (Example 501; 3 nM KRAS WT, 3 nM SOS1, 60-minute incubation); conditions: read-out: KRas HTRF IC50
Outline: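 SOS1-mediated exchange assay: 3 nM biotin-KRAS WT with terbium-streptavidin, started with 3 nM SOS1 and 300 nM BODIPY-GDP, HEPES pH 7.5 with MgCl2. TR-FRET (520/490 nm) read after 60 min; normalized to DMSO and full-inhibition control, IC50 from 4-parameter Hill fit.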

T1 sequence (P01116-2 other isoform, or with tags, fused parts or gaps): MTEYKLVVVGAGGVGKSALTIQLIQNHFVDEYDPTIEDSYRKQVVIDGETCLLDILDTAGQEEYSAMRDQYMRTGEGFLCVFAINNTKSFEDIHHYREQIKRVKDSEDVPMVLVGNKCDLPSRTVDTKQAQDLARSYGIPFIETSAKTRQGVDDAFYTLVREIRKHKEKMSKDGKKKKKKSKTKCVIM

Row | Structure (SMILES) | IC50 [1] [nM] | IC50 [2] [nM] | IC50 [3] [nM]
1 | Cc1c(F)c(N)cc(-c2nc3c4c(nc(OC[C@H]5C[C@@H]6COCCN65)nc4c2F)N2C[C@H]4CC[C@H](N4)[C@H]2[C@H](C)O3)c1C(F)(F)F (mixture of isomers) [159 (mixture), 5-((5S,5aS,6S,9R)-12-((4-Oxa-1-azabicyclo[4.2.0]octan-8-yl)methoxy)-1-fluoro-5-methyl-5a,6,7,8,9,10-hexahydro-5H-4-oxa-3,10a,11,13,14-pentaaza-6,9-methanonaphtho[1,8-ab]heptalen-2-yl)-2-fluoro-3-methyl-4-(trifluoromethyl)aniline] | 45.2 | 0.23 | –
2 | Cc1c(F)c(N)cc(-c2nc3c4c(nc(OCC5CCC6CN(C)C(=O)CN56)nc4c2F)N2C[C@H]4CC[C@H](N4)[C@H]2[C@H](C)O3)c1C(F)(F)F (mixture of isomers) [Compound 124, 6-((((5S,5aS,6S,9R)-2-(5-Amino-4-fluoro-3-methyl-2-(trifluoromethyl)phenyl)-1-fluoro-5-methyl-5a,6,7,8,9,10-hexahydro-5H-4-oxa-3,10a,11,13,14-pentaaza-6,9-methanonaphtho[1,8-ab]heptalen-12-yl)oxy)methyl)-2-methylhexahydropyrrolo[1,2-a]pyrazin-3(4H)-one] | 619 | 1.74 | –
3 | Cc1c(F)c(N)cc(-c2nc3c4c(nc(OC[C@@H]5CC[C@@H]6CC(F)(F)CCN65)nc4c2F)N2C[C@H]4CC[C@H](N4)[C@H]2[C@H](C)O3)c1C(F)(F)F (single isomer, unassigned) [119 (isomer 1)] | 787 | 4.38 | –
4 | Cc1c(F)c(N)cc(-c2nc3c4c(nc(OC[C@@H]5CCC6CC(F)(F)CCN65)nc4c2F)N2C[C@H]4CC[C@H](N4)[C@H]2[C@H](C)O3)c1C(F)(F)F (single isomer, unassigned) [119 (isomer 2)] | 75 | 0.37 | –
5 | Cc1c(F)c(N)cc(-c2nc3c4c(nc(OC[C@@]5(CCF)CCCN5C)nc4c2F)N2C[C@H]4CC[C@H](N4)[C@H]2[C@H](C)O3)c1C(F)(F)F (single isomer, unassigned) [127 (isomer 1)] | 17.9 | 0.14 | –
6 | Cc1c(F)c(N)cc(-c2nc3c4c(nc(OC[C@]5(CCF)CCCN5C)nc4c2F)N2C[C@H]4CC[C@H](N4)[C@H]2[C@H](C)O3)c1C(F)(F)F (single isomer, unassigned) [127 (isomer 2)] | 37.7 | 0.19 | –
7 | Cc1c(F)c(N)cc(-c2nc3c4c(nc(OC[C@@H]5CC[C@@H]6C[C@@H](C(=O)N(C)C)CCN65)nc4c2F)N2C[C@H]4CC[C@H](N4)[C@H]2[C@H](C)O3)c1C(F)(F)F (single isomer, unassigned) [133 (isomer 1)] | 13.6 | 0.12 | –
8 | Cc1c(F)c(N)cc(-c2nc3c4c(nc(OC[C@@H]5CC[C@@H]6CC(C(=O)N(C)C)CCN65)nc4c2F)N2C[C@H]4CC[C@H](N4)[C@H]2[C@H](C)O3)c1C(F)(F)F (single isomer, unassigned) [133 (isomer 3)] | 23.3 | 0.14 | –
9 | Cc1c(F)c(N)cc(-c2nc3c4c(nc(OC[C@@H]5CC[C@H]6C[C@H](C(=O)N(C)C)CCN56)nc4c2F)N2C[C@H]4CC[C@H](N4)[C@H]2[C@H](C)O3)c1C(F)(F)F (single isomer, unassigned) [133 (isomer 4)] | 2.3 | 0.08 | –
10 | Cc1c(F)c(N)cc(-c2nc3c4c(nc(OC[C@]56COC[C@H]5CCN6C)nc4c2F)N2C[C@H]4CC[C@H](N4)[C@H]2[C@H](C)O3)c1C(F)(F)F (single isomer, unassigned) [134 (isomer 1)] | 39.4 | 0.19 | –
11 | Cc1c(F)c(N)cc(-c2nc3c4c(nc(OC[C@]56COC[C@@H]5CCN6C)nc4c2F)N2C[C@H]4CC[C@H](N4)[C@H]2[C@H](C)O3)c1C(F)(F)F (single isomer, unassigned) [134 (isomer 2)] | 38.1 | 0.19 | –
12 | Cc1c(F)c(N)cc(-c2nc3c4c(nc(OC[C@@]56CCCN5CCN(C)C6=O)nc4c2F)N2C[C@H]4CC[C@H](N4)[C@H]2[C@H](C)O3)c1C(F)(F)F (single isomer, unassigned) [137 (isomer 1)] | 283 | 2.31 | –
13 | Cc1c(F)c(N)cc(-c2nc3c4c(nc(OC[C@]56CCCN5C[C@H](F)[C@@H]6F)nc4c2F)N2C[C@H]4CC[C@H](N4)[C@H]2[C@H](C)O3)c1C(F)(F)F (single isomer, unassigned) [143 (isomer 1)] | 28.1 | 0.22 | –
14 | Cc1c(F)c(N)cc(-c2nc3c4c(nc(OC[C@@]5(CC(F)F)CCCN5C)nc4c2F)N2C[C@H]4CC[C@H](N4)[C@H]2[C@H](C)O3)c1C(F)(F)F (single isomer, unassigned) [150 (isomer 1)] | 27.5 | 0.18 | –
15 | Cc1c(F)c(N)cc(-c2nc3c4c(nc(OC[C@]5(CC(F)F)CCCN5C)nc4c2F)N2C[C@H]4CC[C@H](N4)[C@H]2[C@H](C)O3)c1C(F)(F)F (single isomer, unassigned) [150 (isomer 2)] | 64.5 | 0.25 | –
16 | C[C@@H]1Oc2nc(-c3cc(N)c(F)c(F)c3CC(F)F)c(F)c3cc(OC[C@@H]4CC[C@H]5COCCN54)nc(c23)N2C[C@H]3CC[C@H](N3)[C@@H]12 [Compound 158, 4-(2,2-Difluoroethyl)-2,3-difluoro-5-((5S,5aS,6S,9R)-1-fluoro-13-(((6S,8aS)-hexahydro-1H-pyrrolo[2,1-c][1,4]oxazin-6-yl)methoxy)-5-methyl-5a,6,7,8,9,10-hexahydro-5H-6,9-epiminoazepino[2′,1′:3,4][1,4]oxazepino[5,6,7-ij][2,7-]naphthyridin-2-yl)aniline] | 121 | – | –
17 | COC1(CF)CN(CC2(COc3nc4c5c(nc(-c6cc(N)nc(C)c6C(F)(F)F)c(F)c5n3)O[C@@H](C)[C@@H]3[C@@H]5CC[C@H](CN43)N5)CC2)C1 [Compound 272, 4-((5S,5aS,6S,9R)-1-fluoro-12-((1-((3-(fluoromethyl)-3-methoxyazetidin-1-yl)methyl)cyclopropyl)methoxy)-5-methyl-5a,6,7,8,9,10-hexahydro-5H-4-oxa-3,10a,11,13,14-pentaaza-6,9-methanonaphtho[1,8-ab]heptalene-2-yl)-6-methyl-5-(trifluoromethyl)pyridin-2-amine] | – | 0.38 | 24.4
18 | COC1(C)CN(CC2(COc3nc4c5c(nc(-c6cc(N)nc(C)c6C(F)(F)F)c(F)c5n3)O[C@@H](C)[C@@H]3[C@@H]5CC[C@H](CN43)N5)CC2)C1 [Compound 273, 4-((5S,5aS,6S,9R)-1-fluoro-12-((1-((3-methoxy-3-methylazetidin-1-yl)methyl)cyclopropyl)methoxy)-5-methyl-5a,6,7,8,9,10-hexahydro-5H-4-oxa-3,10a,11,13,14-pentaaza-6,9-methanonaphtho[1,8-ab]heptalene-2-yl)-6-methyl-5-(trifluoromethyl)pyridin-2-amine] | – | 0.29 | 17.1
19 | Cc1nc(N)cc(-c2nc3c4c(nc(OCC5(CN6CC(C(F)F)C6)CC5)nc4c2F)N2C[C@H]4CC[C@H](N4)[C@H]2[C@H](C)O3)c1C(F)(F)F [Compound 274, 4-((5S,5aS,6S,9R)-12-((1-((3-(difluoromethyl)108eptalene-1-yl)methyl)cyclopropyl)methoxy)-1-fluoro-5-methyl-5a,6,7,8,9,10-hexahydro-5H-4-oxa-3,10a,11,13,14-pentaaza-6,9-methanonaphtho[1,8-ab]heptalene-2-yl)-6-methyl-5-(trifluoromethyl)pyridin-2-amine] | – | 0.34 | 25.7
20 | CO[C@@H]1CCN(CC2(COc3nc4c5c(nc(-c6cc(N)nc(C)c6C(F)(F)F)c(F)c5n3)O[C@@H](C)[C@@H]3[C@@H]5CC[C@H](CN43)N5)CC2)C[C@@H]1F [Compound 275, 4-((5S,5aS,6S,9R)-1-fluoro-12-((1-(((3S,4R)-3-fluoro-4-methoxypiperidin-1-yl)methyl)cyclopropyl)methoxy)-5-methyl-5a,6,7,8,9,10-hexahydro-5H-4-oxa-3,10a,11,13,14-pentaaza-6,9-methanonaphtho[1,8-ab]heptalene-2-yl)-6-methyl-5-(trifluoromethyl)pyridin-2-amine] | – | 0.48 | 23.3
21 | Cc1nc(N)cc(-c2nc3c4c(nc(OCC5(CN6CCC(C(F)F)C6)CC5)nc4c2F)N2C[C@H]4CC[C@H](N4)[C@H]2[C@H](C)O3)c1C(F)(F)F (stereo partly drawn) [Compound 276, 4-((5S,5aS,6S,9R)-12-((1-((3-(difluoromethyl)pyrrolidin-1-yl)methyl)cyclopropyl)methoxy)-1-fluoro-5-methyl-5a,6,7,8,9,10-hexahydro-5H-4-oxa-3,10a,11,13,14-pentaaza-6,9-methanonaphtho[1,8-ab]heptalen-2-yl)-6-methyl-5-(trifluoromethyl)pyridin-2-amine] | – | 0.26 | 8.91
